In patent US20060069076A1, “LXR/RXR-related methods and compositions” (priority 2004, published 2006):

Columns and labels:
Format in all cases: cell-based, mouse
[1] = system: Aβ secretion from Neuro2a-APPSw cells; experiment: Secreted Aβ from Neuro2a-APPSw cells after LXR activation (immunoprecipitation and immunoblotting)
Description: Neuro2a-APPSw cells were treated with LXR activators (TO or 22(R)-hydroxycholesterol) and in some cases also with RXR activator (9-cis-retinoic acid). Secreted Aβ (sAβ) was detected in medium by immunoprecipitation and immunoblotting. Cellular APP (cAPP) levels were measured by immunoblotting cell lysates. Western blots were scanned and quantified by ImageQuant. The bar graphs show the combined results (means±S.E.) from at least three independent experiments. A, cells were treated with increasing amounts of TO. B, cells were treated with mock transfection (control) or 1 μM TO, μM 9-cis-RA. C, cells were treated with mock transfection or 5 μM 22(R)-hydroxycholesterol (22(R)OHchol), 10 μM 9-cis-RA. #, p<0.05 compared with control. *, p<0.01 compared with control. […]
In experiments with LXR activation, the cells were first induced with activators for 24 h in DMEM, 5% lipoprotein-deficient serum. […] The immunoblots were developed using the ECL system (Pierce) scanned and quantified by ImageQuant (Molecular Dynamics). Quantitation of Aβ40 and Aβ42 was performed using a commercial Aβ enzyme-linked immunosorbent assay kit. […]
The cells were treated with increasing doses of the synthetic LXRα/β activator TO901317 (“TO”), and Aβ secretion into medium was measured by immunoprecipitation and Western blotting (FIG. 1A).

[2] = system: cellular cholesterol efflux, Neuro2a cells; experiment: Cellular cholesterol efflux from ABCA1-expressing Neuro2a cells; settings: expression of ABCA1 and addition of apoA-I (10 μg/ml, 6 h)
Description: The efflux experiments were performed as described (13). Briefly, Neuro2a cells were labeled with 1 μCi/ml [1.2-^3H(N)]-cholesterol (PerkinElmer Life Sciences) in DMEM containing 5 mM methyl-β-cyclodextrin:cholesterol at a molar ratio of 8:1 for 15 min at 37° C. After washing, the cells were equilibrated in DMEM, 0.2% bovine serum albumin for 30 min and then used for efflux experiments. […] The cells were lysed in 0.1 M sodium hydroxide, 0.1% SDS, and radioactivity was determined by liquid scintillation counting. Efflux was expressed as the percentage of radioactivity in the medium relative to the total radioactivity in cells and medium.
(§1) Cellular cholesterol mass was also measured.

[3] = system: Aβ secretion from Neuro2a-APPSw cells; experiment: Aβ secretion from ABCA1- or mock-transfected Neuro2a-APPSw cells with added apolipoproteins; settings: apolipoprotein added for 6 h, compared with ABCA1 without apolipoprotein
Description: FIGS. 3A-3C: ABCA1 overexpression inhibits Aβ secretion.
FIG. 4: The effect of apoE isoforms on Aβ secretion.
as §1
Because apoE is a major apolipoprotein in the central nervous system and the apoE4 isoform is associated with increased risk of AD (19, 20), the effects of apoE on Aβ formation was also examined. […] Again, the major effect was attributable to ABCA1 expression alone.

[4] = system: Aβ generation from C99 in Neuro2a cells; experiment: γ-Secretase cleavage of C99 Myc in Neuro2a cells transfected with ABCA1; settings: Neuro2a cells transfected with C99 Myc and ABCA1; apoA-I added; data not shown
Description: FIGS. 5A-5B: ABCA1 overexpression decreases β-cleavage of APPSw and γ-cleavage of the 99-amino acid C-terminal fragment of APP. A, Neuro2a-APPSw cells were transfected with either empty vector or vector containing ABCA1 cDNA. The β-cleavage product C99 was detected by immunoprecipitation of cell lysates with antibody 4G8 followed by immunoblotting with 6E10. Cellular APP (cAPP) level was measured by immunoblotting cell lysates. The data are the means±S.E. for five separate experiments; *, p<0.01 compared with mock (mk) transfected. B, Neuro2a cells were transfected with vector containing either C99 Myc alone or C99 Myc with ABCA1. Aβ was detected as in FIG. 3. Cellular C99 was detected by immunoprecipitation with anti-Myc antibody followed by Western blot with 6E10. The data are shown for three separate experiments conducted in duplicate. #, p<0.05 compared with C99 transfected alone.
Both β and γ-cleavage of APP are required for the generation of Aβ. A series of experiments were carried out to determine which step is affected by ABCA1 overexpression. To measure β-cleavage, the β-secretase cleavage product was immunoprecipitated (C99 ) from cell lysates. There was an 85% decrease of cellular C99 in Neuro2a-APPSw cells transiently transfected with ABCA1 compared with mock transfected control (FIG. 5A). γ-Secretase mediates the final step in Aβ generation (1). […]

[5] = system: efflux of cellular phospholipids, Neuro2a cells; experiment: Cellular phospholipid efflux from ABCA1-expressing Neuro2a cells; settings: expression of ABCA1 and addition of apoA-I

Row | Compound | reduction in secretion of Aβ into medium ([1]; 1 μM TO, 24 h induction, 4 h medium, immunoprecipitation and Western blotting (FIG. 1A)) | amount of soluble form of APP (APPsα) in medium ([1]; administration of the LXR activator, data not shown) | increase in cellular cholesterol efflux [2] | further change in Aβ on adding apolipoprotein to ABCA1-expressing cells [3] | further decrease in Aβ generation from C99 [4] | increase in efflux of cellular phospholipids [5]
1 | O=S(=O)(c1ccccc1)N(CC(F)(F)F)c1ccc(C(O)(C(F)(F)F)C(F)(F)F)cc1 [TO901317] | ~50% | not significantly changed |  |  |  | 
2 | apoA-I: purified human apolipoprotein A-I, from Biodesign |  |  | 1.0±0.1 % of total cellular cholesterol | only a slight further decrease | did not provide a further decrease | 1.9 % of total cellular choline-labeled lipids
